# Source: US4968788A, “Biologically reversible phosphate and phosphonate protective gruops” (Board of Regents, The University of Texas System, priority 1989, dated 1990)
# Assays:
# physchem = type: physicochemical
# Protocol: Several tests have been performed with both types of protected compositions. […] The stabilities of these protected compositions were determined in aqueous buffered solutions having pH ranging from 1 to 10, and also under selected biological conditions. Except for the acetoxymethyl derivatives of the second type, these phosphoesters were relatively stable in a neutral environment. They reverted to their parent compounds in acidic or basic media.
# The protected product was stable in neutral aprotic solvents such as benzene, diethyl ether and ethyl acetate. […] The half-life was greater than 4 hours.
# These solutions were analyzed by (HPLC) high performance liquid chromatography (Waters model ALC 204). The disappearance of the bis(acyloxymethyl) phosphate was monitored by reversed-phase chromatography on a column of μ Bondapak-C18 (30 cm×4 mm i.d., 10 μm; Waters Assoc., Milford, Mass.) using solutions of 0.01M potassium phosphate buffer (pH 7.0) with methanol as the mobile phase (typically 25-50% alcohol).
# The formation of intermediate B and mono(acetoxymethyl) phosphate C was monitored by ion-pair chromatography on μ Bondapak-C using the same buffer system as described above, except that tetrabutylammonium hydroxide was added to a concentration 2×10^-3 M, or by anion-exchange chromatography on a column of Partisil SAX (25 cm×4.6 mm i.d., 10 μm; Whatman) using a linear gradient of 0.01-0.1M potassium phosphate buffer (pH 6.5) as an eluent. The flow rates for these analyses and the ones described above ranged from 1.0 to 2.0 ml/min. The column effluents were monitored at 254 nm with a Schoeffel model 450 UV detector, and the concentrations were determined by comparison of the peak areas with those of reference standards.
# [1] = degradation on incubation with mouse plasma; type: in vitro ADME
# Protocol: (§1) (At appropriate intervals, aliquots (100 μl) of the incubation mixtures were diluted with 3 volumes of methanol and then agitated for 1 minute on a Vortex shaker. The precipitated protein was separated by centrifugation at 10,000×g for 5 minutes, and the supernatants were analyzed by HPLC as described above.)
# (§2) was incubated at […] with mouse plasma and hog liver carboxylate esterase.
# [2] = test system: hog liver carboxylate esterase; experiment: degradation on incubation with hog liver carboxylate esterase; type: in vitro ADME
# Protocol: as §1, §2
# [3] = as above; type: in vitro ADME; conditions: pig, liver carboxylate esterase; 65 micrograms per milliliter, 37° C., pH 7.4, 8 milligrams protein per milliliter
# Protocol: as §1, §2
# [4] = test system: Chinese hamster ovary cells; experiment: prevention of growth of Chinese hamster ovary cells in culture; type: cell-based
# Protocol: Example 5 was repeated with the R substituent changed to fluorine (i.e., 2',5-dideoxy-5'-iodo-3'-O-acetyl-5-fluorouridine). There was a 15% yield of this product. This composition prevented the growth of Chinese hamster ovary cells in culture at a concentration of 5.0×10^-6 M [5-fluoro-2'-deoxyuridine (5-FUdR) control, 1.0×10^-6 M].
# as §2
# [5] = test system: P388 leukemia which is resistant to 5-fluorouracil; experiment: activity against P388 leukemia resistant to 5-fluorouracil; conditions: P388 resistant to 5-fluorouracil
# [6] = 65 micrograms per milliliter, 37° C., 0.05M potassium phosphate buffer (pH 7.4), mouse plasma 50% by volume
smiles,measurement,setting,value
CC(C)(C)C(=O)OC1CCOP(=O)(Oc2ccccc2)O1 (stereo not shown) [Example 1],stability in organic solvents or aqueous buffers,physchem; organic solvents or aqueous buffers,stable
same,conversion to phenyl phosphate with strong acids or bases,physchem; strong acids or bases,quantitatively converted to phenyl phosphate
same,reversion to phenyl phosphate in mouse plasma,"[1]; 37° C., 30 minutes, mouse plasma",reverted to phenyl phosphate
"CC(=O)OCOP(=O)(OCOC(C)=O)Oc1ccccc1 [Example 2, bis(acetoxymethyl) phenyl phosphate]",conversion in protonic solvents,"physchem; ethanol, water or 0.05M potassium phosphate buffer (pH 7.4)",slowly converted to mono(acetoxymethyl) phenyl phosphate
same,half-life,"physchem; ethanol, water or 0.05M potassium phosphate buffer (pH 7.4), read-out: half-life in protonic solvents",> 240 min
same,stability in neutral aprotic solvents,"physchem; neutral aprotic solvents such as benzene, diethyl ether and ethyl acetate",stable
same,"degradation by hog liver carboxylate esterase (first to mono(acetoxymethyl) analog, then to phenyl phosphate)","[2]; 65 micrograms per milliliter, 37° C., pH 7.4, 8 milligrams protein per milliliter",rapidly degraded
same,half-life,[3],< 15 min
same,"degradation in mouse plasma (first to mono(acetoxymethyl) analog, then to phenyl phosphate)",[1]; [6],rapidly degraded
same,half-life,[1]; [6],< 15 min
"CC(C)(C)C(=O)OCOP(=O)(OCOC(=O)C(C)(C)C)Oc1ccccc1 [Example 3, bis(pivaloyloxymethyl) phenyl phosphate]",stability in protonic solvents,physchem; protonic solvents,stable in protonic solvents
same,resistance to both chemical and enzymatic hydrolysis,[1]; compared with the protected composition of Example 1 (so in the source),much more resistant
same,half-life,"[1]; pH 7.4, incubated with mouse plasma under the same conditions as in Example 2",~300 min
"O=c1[nH]c(=O)n([C@H]2C[C@H](O)[C@@H](CO)O2)cc1F [Example 5-FUdR, 5-fluoro-2'-deoxyuridine, reference compound]",minimal effective concentration,"[4]; Cricetulus griseus, read-out: concentration that prevented the growth of Chinese hamster ovary cells",1 µM
CC(=O)O[C@H]1C[C@H](n2cc(F)c(=O)[nH]c2=O)O[C@@H]1COP(=O)(OCOC(=O)C(C)(C)C)OCOC(=O)C(C)(C)C [Example 6],concentration that prevented the growth of Chinese hamster ovary cells,[4],5 µM
CC(=O)O[C@H]1C[C@H](n2cc(F)c(=O)[nH]c2=O)O[C@@H]1COP(=O)(OCOC(=O)C(C)(C)C)OCOC(=O)C(C)(C)C [Example 7],cleavage of acyloxymethyl groups and 3'-acetyl group with hog liver carboxylate esterase,[2],successively cleaved to give 5-FdUMP
same,cleavage of acyloxymethyl groups and 3'-acetyl group in mouse plasma,[1],successively cleaved to give 5-FdUMP
same,concentration that prevented the growth of Chinese hamster ovary cells,[4],1 µM
same,activity against P388 leukemia,[5],active
